Test results reported in ChEMBL document CHEMBL1129168, “Synthesis and antiviral activity of new phosphonobutoxypurines” (Bioorg Med Chem Lett, 1996).
Converted amounts (≈) assume the structure as drawn.

Tests used:
Human alphaherpesvirus 2 = assay: Compound was tested in vitro for antiviral activity against Herpes simplex virus-Type 2 in MS cells.; assay type: functional, organism-based; conditions: Human alphaherpesvirus 2, MS
Human alphaherpesvirus 3 = assay: Compound was tested in vitro for antiviral activity against Varicella zoster virus (VZV) in ellen cells.; assay type: functional, organism-based
Human alphaherpesvirus 1 = assay: Compound was tested in vitro for antiviral activity against Herpes simplex virus-Type 1 in SC 16 cells.; assay type: functional, organism-based
MRC5 = assay: Compound was tested in vitro for antiviral activity against Herpes viruses(HSV-2, VZV) in human fibroblast (MRC-5) cells.; assay type: functional, cell-based
Homo sapiens = species: Homo sapiens; assay: Compound was tested for its activity against HIV replication in human peripheral blood lymphocytes (PBLs) using MTT-based cytotoxicity assay.; assay type: functional, organism-based
D34 = assay: Compound was tested in vitro for antiviral activity against Human immunodeficiency virus type-1 in D34 cells.; assay type: functional, cell-based

SMILES	IC50 (Human alphaherpesvirus 2) [µg/mL]	IC50 (Human alphaherpesvirus 3) [µg/mL]	IC50 (Human alphaherpesvirus 1) [µg/mL]	IC50 (MRC5) [µg/mL]	IC50 (Homo sapiens) [µM]	IC50 (D34) [µM]
Nc1nc(N)c2ncn(OCC(CO)CCP(=O)(O)O)c2n1 (stereo unspecified)	> 100	17 (≈ 51.2 µM)	> 100	78 (≈ 235 µM)	–	–
Nc1nc(O)c2ncn(OCCCCP(=O)(O)O)c2n1	23 (≈ 75.9 µM)	6 (≈ 19.8 µM)	> 100	1.6 (≈ 5.28 µM)	> 100	0.01
Nc1ncnc2c1ncn2OCCCCP(=O)(O)O	> 100	> 100	> 100	58 (≈ 202 µM)	–	> 100
Nc1nc(N)c2ncn(OCCCCP(=O)(O)O)c2n1	> 100	17 (≈ 56.2 µM)	> 100	26 (≈ 86 µM)	> 100	1
Nc1nc(O)c2ncn(OCC(CO)CCP(=O)(O)O)c2n1 (stereo unspecified)	> 100	5 (≈ 15 µM)	> 100	8.8 (≈ 26.4 µM)	–	> 100
Nc1ncnc2c1ncn2OCC(CO)CCP(=O)(O)O (stereo unspecified)	> 100	> 100	> 100	> 100	–	> 100
